According to patent US20170000133A1, “BENZOXABOROLE FUNGICIDES” (SYNGENTA PARTICIPATIONS AG, priority 2013, published 2017):

Key:
[1] = tested on: Mycosphaerella graminicola (Septoria tritici); assay: Mycosphaerella graminicola (Septoria tritici) / liquid culture (Septoria blotch); type: cell-based; details: Zymoseptoria tritici, PDB potato dextrose broth, 24° C., 4-5 days after application, read-out: disease control (inhibition of growth determined photometrically)
How it was run: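 Growth inhibition was read photometrically 4-5 days after application, following incubation at 24° C of fungal conidia in potato dextrose broth over test compound (200 ppm, from DMSO solution) in microtiter plates.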

Plasmopara viticola = assay: whole plant or invertebrate; type: in vivo; details: foliar, read-out: disease control
[2] = tested on: Mycosphaerella arachidis (Cercospora arachidicola); assay: Mycosphaerella arachidis (Cercospora arachidicola) / liquid culture (early leaf spot); type: cell-based; details: PDB potato dextrose broth, 24° C., 4-5 days after application, read-out: disease control (inhibition of growth determined photometrically)
Procedure: (§1) 12. Mycosphaerella arachidis (Cercospora arachidicola)/Liquid Culture (Early Leaf Spot): Conidia of the fungus from cryogenic storage were directly mixed into nutrient broth (PDB potato dextrose broth). After placing a DMSO solution of test compound into a 96-well microtiter plate at an application rate of 200 ppm, the nutrient broth containing the fungal spores was added. The test plates were incubated at 24° C. and the inhibition of growth was determined photometrically 4-5 days after application.

[3] = tested on: Thanatephorus cucumeris (Rhizoctonia solani); assay: Thanatephorus cucumeris (Rhizoctonia solani) / liquid culture (foot rot, damping-off); type: cell-based; details: PDB potato dextrose broth, 24° C., 3-4 days after application, read-out: disease control (inhibition of growth determined photometrically)
How it was run: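 Photometric growth-inhibition readout taken 3-4 days after application, with cultures incubated at 24 °C. Test compound was applied at 200 ppm from DMSO solution to R. solani mycelial fragments in PDB.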

[4] = tested on: Monographella nivalis (Microdochium nivale); assay: Monographella nivalis (Microdochium nivale) / liquid culture (foot rot cereals); type: cell-based; details: PDB potato dextrose broth, 24° C., 4-5 days after application, read-out: disease control (inhibition of growth determined photometrically)
Pythium ultimum = Pythium ultimum / liquid culture (seedling damping off); type: cell-based; details: Globisporangium ultimum; 200 ppm; potato dextrose broth, 24° C., 2-3 days after application; read-out: disease control (inhibition of growth determined photometrically)
[5] = tested on: Glomerella lagenarium (Colletotrichum lagenarium); assay: Glomerella lagenarium (Colletotrichum lagenarium) / liquid culture (anthracnose); type: cell-based; details: Colletotrichum orbiculare, PDB potato dextrose broth, 24° C., 3-4 days after application, read-out: disease control (inhibition of growth measured photometrically)
Procedure: as §1, with “11. Glomerella lagenarium (Colletotrichum lagenarium)/Liquid” for “12. Mycosphaerella arachidis (Cercospora arachidicola)/Liquid”, “(Anthracnose):” for “(Early Leaf Spot):”, “measured” for “determined”, “3-4” for “4-5”

Gaeumannomyces graminis = Gaeumannomyces graminis / liquid culture (take-all of cereals); type: cell-based; details: PDB potato dextrose broth, 24° C., 4-5 days after application, read-out: disease control (inhibition of growth determined photometrically)
How it was run: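 Growth inhibition measured photometrically 4–5 days post-application, following incubation at 24 °C. Test compound, applied from DMSO at 200 ppm, mixed with fungal mycelial fragments in potato dextrose broth.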

Fusarium culmorum = assay: microbe, parasite or virus in culture; type: cell-based; details: read-out: disease control (inhibition of growth determined visually)

C#CCOC(=O)c1ccc2c(c1)B(O)OC2 [Compound 320]
≥ 80%: inhibition at 200 ppm [1] | pest or weed control at 200 ppm (Plasmopara viticola) | inhibition at 200 ppm [2] | inhibition at 200 ppm [3] | inhibition at 200 ppm [4] | inhibition at 200 ppm (Pythium ultimum) | inhibition at 200 ppm [5] | inhibition at 200 ppm (Gaeumannomyces graminis)

O=C(OCc1ccc(C(F)(F)F)nc1)c1ccc2c(c1)B(O)OC2 [Compound 343]
≥ 80%: inhibition at 200 ppm [1] | pest or weed control at 200 ppm (Plasmopara viticola) | inhibition at 200 ppm [2] | inhibition at 200 ppm [3] | inhibition at 200 ppm [4] | inhibition at 200 ppm (Pythium ultimum) | inhibition at 200 ppm [5] | inhibition at 200 ppm (Gaeumannomyces graminis)

O=C(OC1CCC1)c1ccc2c(c1)B(O)OC2 [Compound 332]
≥ 80%: inhibition at 200 ppm [1] | pest or weed control at 200 ppm (Plasmopara viticola) | inhibition at 200 ppm [2] | inhibition at 200 ppm [3] | inhibition at 200 ppm [4] | inhibition at 200 ppm (Pythium ultimum) | inhibition at 200 ppm (Fusarium culmorum)

C=CCOC(=O)c1cc2c(cc1F)COB2O [Compound 403]
≥ 80%: inhibition at 200 ppm [1] | pest or weed control at 200 ppm (Plasmopara viticola) | inhibition at 200 ppm [2] | inhibition at 200 ppm [3] | inhibition at 200 ppm [4] | inhibition at 200 ppm (Pythium ultimum) | inhibition at 200 ppm [5] | inhibition at 200 ppm (Gaeumannomyces graminis)

O=C(OCC(F)(F)Cl)c1ccc2c(c1)B(O)OC2 [Compound 314]
≥ 80%: inhibition at 200 ppm [1] | pest or weed control at 200 ppm (Plasmopara viticola) | inhibition at 200 ppm [2] | inhibition at 200 ppm [3] | inhibition at 200 ppm [4] | inhibition at 200 ppm (Pythium ultimum) | inhibition at 200 ppm [5] | inhibition at 200 ppm (Gaeumannomyces graminis)

O=C(OCCc1c(Cl)cccc1Cl)c1cc2c(cc1F)COB2O [Compound 433]
≥ 80%: pest or weed control at 200 ppm (Plasmopara viticola) | inhibition at 200 ppm [3] | inhibition at 200 ppm [4] | inhibition at 200 ppm (Fusarium culmorum) | inhibition at 200 ppm (Gaeumannomyces graminis)

O=C(OCC1CCC1)c1cc2c(cc1F)COB2O [Compound 413]
≥ 80%: inhibition at 200 ppm [1] | inhibition at 200 ppm [3] | inhibition at 200 ppm [4] | inhibition at 200 ppm (Pythium ultimum) | inhibition at 200 ppm (Fusarium culmorum) | inhibition at 200 ppm (Gaeumannomyces graminis)

O=C(OCCOc1ccc(Cl)cc1)c1cc2c(cc1Cl)COB2O [Compound 226]
≥ 80%: inhibition at 200 ppm [1] | pest or weed control at 200 ppm (Plasmopara viticola) | inhibition at 200 ppm [2] | inhibition at 200 ppm [3] | inhibition at 200 ppm [4] | inhibition at 200 ppm (Pythium ultimum) | inhibition at 200 ppm (Fusarium culmorum) | inhibition at 200 ppm [5] | inhibition at 200 ppm (Gaeumannomyces graminis)

C=CCCOC(=O)c1ccc2c(c1)B(O)OC2 [Compound 329]
≥ 80%: inhibition at 200 ppm [1] | pest or weed control at 200 ppm (Plasmopara viticola) | inhibition at 200 ppm [2] | inhibition at 200 ppm [3] | inhibition at 200 ppm [4] | inhibition at 200 ppm (Pythium ultimum) | inhibition at 200 ppm (Fusarium culmorum) | inhibition at 200 ppm (Gaeumannomyces graminis)

O=C(OCC1CC1)c1cc2c(cc1F)COB2O [Compound 388]
≥ 80%: inhibition at 200 ppm [1] | pest or weed control at 200 ppm (Plasmopara viticola) | inhibition at 200 ppm [2] | inhibition at 200 ppm [3] | inhibition at 200 ppm [4] | inhibition at 200 ppm (Pythium ultimum) | inhibition at 200 ppm [5] | inhibition at 200 ppm (Gaeumannomyces graminis)

COc1ccc(OCCOC(=O)c2ccc3c(c2)B(O)OC3)cc1 [Compound 344]
≥ 80%: inhibition at 200 ppm [1] | pest or weed control at 200 ppm (Plasmopara viticola) | inhibition at 200 ppm [2] | inhibition at 200 ppm [3] | inhibition at 200 ppm [4] | inhibition at 200 ppm (Pythium ultimum) | inhibition at 200 ppm (Fusarium culmorum) | inhibition at 200 ppm [5] | inhibition at 200 ppm (Gaeumannomyces graminis)

C#CCCOC(=O)c1cc2c(cc1Cl)COB2O [Compound 229]
≥ 80%: inhibition at 200 ppm [1] | inhibition at 200 ppm [2] | inhibition at 200 ppm [3] | inhibition at 200 ppm [4] | inhibition at 200 ppm (Pythium ultimum) | inhibition at 200 ppm (Fusarium culmorum) | inhibition at 200 ppm [5] | inhibition at 200 ppm (Gaeumannomyces graminis)

O=C(OCCc1c(Cl)cccc1Cl)c1cc2c(cc1Cl)COB2O [Compound 240]
≥ 80%: inhibition at 200 ppm [1] | pest or weed control at 200 ppm (Plasmopara viticola) | inhibition at 200 ppm [2] | inhibition at 200 ppm [3] | inhibition at 200 ppm [4] | inhibition at 200 ppm (Pythium ultimum) | inhibition at 200 ppm [5] | inhibition at 200 ppm (Gaeumannomyces graminis)

C[Si](C)(C)C#CCOC(=O)c1cc2c(cc1F)COB2O [Compound 430]
≥ 80%: inhibition at 200 ppm [1] | pest or weed control at 200 ppm (Plasmopara viticola) | inhibition at 200 ppm [2] | inhibition at 200 ppm [3] | inhibition at 200 ppm (Pythium ultimum) | inhibition at 200 ppm (Fusarium culmorum) | inhibition at 200 ppm (Gaeumannomyces graminis)

O=C(OCc1ccco1)c1ccc2c(c1)B(O)OC2 [Compound 336]
≥ 80%: inhibition at 200 ppm [1] | pest or weed control at 200 ppm (Plasmopara viticola) | inhibition at 200 ppm [2] | inhibition at 200 ppm [3] | inhibition at 200 ppm [4] | inhibition at 200 ppm (Pythium ultimum) | inhibition at 200 ppm (Fusarium culmorum) | inhibition at 200 ppm [5] | inhibition at 200 ppm (Gaeumannomyces graminis)

C=CCOC(=O)c1ccc2c(c1)B(O)OC2 [Compound 340]
≥ 80%: inhibition at 200 ppm [1] | pest or weed control at 200 ppm (Plasmopara viticola) | inhibition at 200 ppm [2] | inhibition at 200 ppm [3] | inhibition at 200 ppm [4] | inhibition at 200 ppm (Pythium ultimum) | inhibition at 200 ppm [5] | inhibition at 200 ppm (Gaeumannomyces graminis)

O=C(OCc1ccsc1)c1cc2c(cc1Cl)COB2O [Compound 439]
≥ 80%: inhibition at 200 ppm [1] | pest or weed control at 200 ppm (Plasmopara viticola) | inhibition at 200 ppm [2] | inhibition at 200 ppm [3] | inhibition at 200 ppm [4] | inhibition at 200 ppm (Pythium ultimum) | inhibition at 200 ppm [5] | inhibition at 200 ppm (Gaeumannomyces graminis)

C=CCCOC(=O)c1cc2c(cc1Cl)COB2O [Compound 203]
≥ 80%: inhibition at 200 ppm [1] | inhibition at 200 ppm [2] | inhibition at 200 ppm [3] | inhibition at 200 ppm [4] | inhibition at 200 ppm (Pythium ultimum) | inhibition at 200 ppm (Fusarium culmorum) | inhibition at 200 ppm [5] | inhibition at 200 ppm (Gaeumannomyces graminis)

O=C(OCc1cccc2ccccc12)c1cc2c(cc1F)COB2O [Compound 394]
≥ 80%: inhibition at 200 ppm [1] | pest or weed control at 200 ppm (Plasmopara viticola) | inhibition at 200 ppm [2] | inhibition at 200 ppm [3] | inhibition at 200 ppm [4] | inhibition at 200 ppm (Pythium ultimum) | inhibition at 200 ppm [5] | inhibition at 200 ppm (Gaeumannomyces graminis)

O=C(OCC1CC1)c1ccc2c(c1)B(O)OC2 [Compound 328]
≥ 80%: inhibition at 200 ppm [1] | pest or weed control at 200 ppm (Plasmopara viticola) | inhibition at 200 ppm [2] | inhibition at 200 ppm [3] | inhibition at 200 ppm [4] | inhibition at 200 ppm (Pythium ultimum) | inhibition at 200 ppm [5] | inhibition at 200 ppm (Gaeumannomyces graminis)

O=C(OC1CSC1)c1ccc2c(c1)B(O)OC2 [Compound 362]
≥ 80%: inhibition at 200 ppm [1] | inhibition at 200 ppm [2] | inhibition at 200 ppm [3] | inhibition at 200 ppm [4] | inhibition at 200 ppm (Pythium ultimum) | inhibition at 200 ppm (Fusarium culmorum) | inhibition at 200 ppm (Gaeumannomyces graminis)

C#CCOC(=O)c1cc2c(cc1F)COB2O [Compound 381]
≥ 80%: inhibition at 200 ppm [1] | pest or weed control at 200 ppm (Plasmopara viticola) | inhibition at 200 ppm [3] | inhibition at 200 ppm [4] | inhibition at 200 ppm (Pythium ultimum) | inhibition at 200 ppm (Fusarium culmorum) | inhibition at 200 ppm [5] | inhibition at 200 ppm (Gaeumannomyces graminis)

O=C(OCC(Cl)(Cl)Cl)c1cc2c(cc1F)COB2O [Compound 382]
≥ 80%: inhibition at 200 ppm [1] | pest or weed control at 200 ppm (Plasmopara viticola) | inhibition at 200 ppm [2] | inhibition at 200 ppm [3] | inhibition at 200 ppm [4] | inhibition at 200 ppm (Pythium ultimum) | inhibition at 200 ppm [5] | inhibition at 200 ppm (Gaeumannomyces graminis)

O=C(OCC(Cl)(Cl)Cl)c1cc2c(cc1Cl)COB2O [Compound 197]
≥ 80%: inhibition at 200 ppm [1] | inhibition at 200 ppm [2] | inhibition at 200 ppm [3] | inhibition at 200 ppm [4] | inhibition at 200 ppm (Pythium ultimum) | inhibition at 200 ppm (Fusarium culmorum) | inhibition at 200 ppm [5]

O=C(OC1CCC1)c1cc2c(cc1Cl)COB2O [Compound 205]
≥ 80%: inhibition at 200 ppm [1] | inhibition at 200 ppm [2] | inhibition at 200 ppm [3] | inhibition at 200 ppm [4] | inhibition at 200 ppm (Pythium ultimum) | inhibition at 200 ppm (Fusarium culmorum) | inhibition at 200 ppm [5] | inhibition at 200 ppm (Gaeumannomyces graminis)
